In patent US20230102554A1 (GB002, INC., priority 2019, published 2023):

Legend:
[1] = target: T1, Human PDGFRα, cytoplasmic domain (GST-PDGFRα) (Homo sapiens, UniProt P16234); assay: Human PDGFRα biochemical inhibition assay (off-chip Mobility Shift Assay)
T1 construct: made in house

[2] = target: T2, Human PDGFRβ, cytoplasmic domain (GST-PDGFRβ) (Homo sapiens, UniProt P09619); assay: Human PDGFRβ biochemical inhibition assay (off-chip Mobility Shift Assay)
T2 construct: made in house
Method: Human PDGFRβ Biochemical Inhibition Assay
The compounds described herein were tested for the ability to inhibit activity of PDGFRβ which was achieved via use of an off-chip Mobility Shift Assay (MSA). Human PDGFRβ, cytoplasmic domain [557-1106 (end) amino acids of accession number NP_002600.1 (SEQ ID NO: 3)] was expressed as N-terminal GST-fusion protein (88 kDa) using baculovirus expression system (SEQ ID NO: 4). GST-PDGFRβ was purified by using glutathione sepharose chromatography. Test compounds were dissolved in and diluted with dimethylsulfoxide (DMSO) to achieve 1 mM concentration. Then the solution was further diluted 25-fold with assay buffer to make the final test compound solution. The reference compound, Staurosporine, used as the assay positive control was prepared similarly. The 4× compound solution/substrate (CSKtide, 1000 nM)/ATP (Km ATP)/Mg Metal (5 mM) was prepared with kit buffer (20 mM HEPES, 0.01% Triton X-100, 5 mM DTT, pH 7.5), and 2× kinase solution was prepared with assay buffer (20 mM HEPES, 0.01% Triton X-100, 1 mM DTT, pH 7.5). The 5 μL of 4× compound solution, […] of 4× Substrate/ATP/Metal solution, and […] of 2× kinase solution were mixed and incubated in a well of polypropylene 384 well microplate for 1 hour at room temperature. […] of Termination Buffer (QuickScout Screening Assist MSA; Carna Biosciences) was added to the well. The reaction mixture was applied to LabChip™ system (Perkin Elmer), and the product and substrate peptide peaks were separated and quantitated. The kinase reaction was evaluated by the product ratio calculated from peak heights of product(P) and substrate(S) peptides (P/(P+S)). The readout value of reaction control (complete reaction mixture) was set as a 0% inhibition, and the readout value of background (Enzyme(−)) was set as a 100% inhibition, then the percent inhibition of each test solution was calculated.
With respect to PDGFRβ activity: “+++” denotes an IC50 of less than 300 nM; “++” denotes an IC50 of from 300 nM to less than 1000 nM; and “+” denotes an IC50 of 1000 nM or more.

T2 sequence (P09619 with tags, fused parts or gaps): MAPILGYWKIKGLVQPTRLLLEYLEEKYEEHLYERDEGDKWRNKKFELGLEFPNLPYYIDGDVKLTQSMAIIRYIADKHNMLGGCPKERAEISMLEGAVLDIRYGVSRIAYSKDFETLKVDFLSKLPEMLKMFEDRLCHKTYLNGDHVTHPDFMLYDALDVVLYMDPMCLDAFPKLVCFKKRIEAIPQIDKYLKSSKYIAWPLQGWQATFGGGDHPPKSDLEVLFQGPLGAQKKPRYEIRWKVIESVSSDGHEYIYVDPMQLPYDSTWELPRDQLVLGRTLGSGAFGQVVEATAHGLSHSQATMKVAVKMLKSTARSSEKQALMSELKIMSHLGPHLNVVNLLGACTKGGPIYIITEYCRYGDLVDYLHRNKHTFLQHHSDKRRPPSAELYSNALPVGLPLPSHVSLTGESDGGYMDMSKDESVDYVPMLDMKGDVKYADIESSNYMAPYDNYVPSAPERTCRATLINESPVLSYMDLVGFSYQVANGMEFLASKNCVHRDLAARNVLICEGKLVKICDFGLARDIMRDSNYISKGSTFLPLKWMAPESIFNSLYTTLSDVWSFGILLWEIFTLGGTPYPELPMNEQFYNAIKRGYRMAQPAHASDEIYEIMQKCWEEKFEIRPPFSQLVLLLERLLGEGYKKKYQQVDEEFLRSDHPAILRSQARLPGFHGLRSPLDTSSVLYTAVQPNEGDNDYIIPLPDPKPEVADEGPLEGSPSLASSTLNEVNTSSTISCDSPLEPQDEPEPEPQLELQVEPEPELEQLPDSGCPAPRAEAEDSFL
T1 sequence (P16234 550-1089 T674I): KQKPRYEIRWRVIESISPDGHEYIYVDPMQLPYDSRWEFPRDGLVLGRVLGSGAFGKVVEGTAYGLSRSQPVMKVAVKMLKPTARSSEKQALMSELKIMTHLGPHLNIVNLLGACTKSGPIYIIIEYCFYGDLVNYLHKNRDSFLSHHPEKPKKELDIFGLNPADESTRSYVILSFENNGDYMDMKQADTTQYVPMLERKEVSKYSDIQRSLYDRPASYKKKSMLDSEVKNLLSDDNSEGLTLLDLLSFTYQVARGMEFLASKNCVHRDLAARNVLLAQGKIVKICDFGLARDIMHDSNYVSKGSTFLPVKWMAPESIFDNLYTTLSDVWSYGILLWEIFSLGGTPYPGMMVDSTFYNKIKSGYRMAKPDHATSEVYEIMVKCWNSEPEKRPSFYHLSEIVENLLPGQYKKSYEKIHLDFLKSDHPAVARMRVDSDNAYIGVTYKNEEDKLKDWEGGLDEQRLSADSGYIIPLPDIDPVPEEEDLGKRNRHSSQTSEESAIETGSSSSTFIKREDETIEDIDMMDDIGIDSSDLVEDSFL

| SMILES | IC50 [1] | IC50 [2] |
| --- | --- | --- |
| Cc1c[nH]c2ncc(N[C@@H](C)c3cccc(NC(=O)c4ccc(OC(F)(F)F)nc4)c3)nc12 [Compound 568, (S)-N-(3-(1-((7-methyl-5H-pyrrolo[2,3-b]pyrazin-2-yl)amino)ethyl)phenyl)-6-(trifluoromethoxy)nicotinamide] | 300 to 1000 nM | ≥ 1000 nM |
| CCn1cnc2ccc(C(=O)Nc3cccc([C@H](C)Nc4cnc5cnn(C)c5n4)c3)cc21 [Compound 74, (S)-1-ethyl-N-(3-(1-((1-methyl-1H-pyrazolo[3,4-b]pyrazin-6-yl)amino)ethyl)phenyl)-1H-benzo[d]imidazole-6-carboxamide] | < 300 nM | < 300 nM |
| CSc1ccc(C(=O)Nc2cccc([C@H](C)Nc3cnc4cnn(C)c4n3)c2)cn1 [Compound 218, (S)-N-(3-(1-((1-methyl-1H-pyrazolo[3,4-b]pyrazin-6-yl)amino)ethyl)phenyl)-6-(methylthio)nicotinamide] | < 300 nM | < 300 nM |
| CCn1cc2ncc(N[C@@H](C)c3cccc(NC(=O)c4cnn(C(C)C)c4)c3)nc2n1 [Compound 301, (S)-N-(3-(1-((2-ethyl-2H-pyrazolo[3,4-b]pyrazin-6-yl)amino)ethyl)phenyl)-1-isopropyl-1H-pyrazole-4-carboxamide] | < 300 nM | < 300 nM |
| Cc1cncc(C(=O)Nc2cccc([C@H](C)Nc3cnc4[nH]nc(-c5cnn(C)c5)c4n3)c2)c1 [Compound 551, (S)-5-methyl-N-(3-(1-((3-(1-methyl-1H-pyrazol-4-yl)-1H-pyrazolo[3,4-b]pyrazin-5-yl)amino)ethyl)phenyl) nicotinamide] | < 300 nM | < 300 nM |
| C[C@H](Nc1cnc2cnn(C)c2n1)c1cccc(NC(=O)c2cnn(C)c2)c1 [Compound 146, (S)-1-methyl-N-(3-(1-((1-methyl-1H-pyrazolo[3,4-b]pyrazin-6-yl)amino)ethyl)phenyl)-1H-pyrazole-4-carboxamide] | 300 to 1000 nM | ≥ 1000 nM |
| CCc1cc2ncc(N[C@@H](C)c3cc(NC(=O)c4ccc(C(F)(F)F)nc4)ccc3F)nc2o1 [Compound 619, (S)-N-(3-(1-((6-ethylfuro[2,3-b]pyrazin-3-yl)amino)ethyl)-4-fluorophenyl)-6-(trifluoromethyl)nicotinamide] | < 300 nM | < 300 nM |
| CCn1cc2ncc(N[C@@H](C)c3cc(NC(=O)c4ccc(N5CCN(C)CC5)c(C(F)(F)F)c4)ccc3F)nc2n1 [Compound 433, (S)-N-(3-(1-((2-ethyl-2H-pyrazolo[3,4-b]pyrazin-6-yl)amino)ethyl)-4-fluorophenyl)-4-(4-methylpiperazin-1-yl)-3-(trifluoromethyl)benzamide] | < 300 nM | < 300 nM |
| CSc1cccc(C(=O)Nc2cccc([C@H](C)Nc3cnc4cnn(C)c4n3)c2)c1 [Compound 224, (S)-N-(3-(1-((1-methyl-1H-pyrazolo[3,4-b]pyrazin-6-yl)amino)ethyl)phenyl)-3-(methylthio)benzamide] | < 300 nM | < 300 nM |
| CCn1cc2ncc(N[C@@H](C)c3cc(NC(=O)Cc4ccc(C5CC5)cn4)ccc3C)nc2n1 [Compound 662, (S)-2-(5-cyclopropylpyridin-2-yl)-N-(3-(1-((2-ethyl-2H-pyrazolo[3,4-b]pyrazin-6-yl)amino)ethyl)-4-methylphenyl) acetamide] | < 300 nM | ≥ 1000 nM |
| Cc1cncc(C(=O)Nc2cccc([C@H](C)Nc3cncc4nn(C)cc34)c2)c1 [Compound 747, (S)-5-methyl-N-(3-(1-((2-methyl-2H-pyrazolo[3,4-c]pyridin-4-yl)amino)ethyl)phenyl)nicotinamide] | ≥ 1000 nM | ≥ 1000 nM |
| CCn1cc2ncc(N[C@@H](C)c3cc(NC(=O)Cc4cncc(F)c4)ccc3C)nc2n1 [Compound 659, (S)-N-(3-(1-((2-ethyl-2H-pyrazolo[3,4-b]pyrazin-6-yl)amino)ethyl)-4-methylphenyl)-2-(5-fluoropyridin-3-yl) acetamide] | < 300 nM | < 300 nM |
| CCn1cc2ncc(N[C@@H](C)c3cc(NC(=O)Cc4ccc(C)nc4)ccc3F)nc2n1 [Compound 651, (S)-N-(3-(1-((2-ethyl-2H-pyrazolo[3,4-b]pyrazin-6-yl)amino)ethyl)-4-fluorophenyl)-2-(6-methylpyridin-3-yl) acetamide] | < 300 nM | ≥ 1000 nM |
| Cc1cncc(C(=O)Nc2cccc([C@H](C)Nc3cnc4cn(CCF)nc4n3)c2)c1 [Compound 277, (S)-N-(3-(1-((2-(2-fluoroethyl)-2H-pyrazolo[3,4-b]pyrazin-6-yl)amino)ethyl)phenyl)-5-methylnicotinamide] | < 300 nM | < 300 nM |
| CCn1cc2ncc(N[C@@H](C)c3cc(NC(=O)c4cnc(N5CCN(C)CC5)c(C)c4)ccc3C)nc2n1 [Compound 514, (S)-N-(3-(1-((2-ethyl-2H-pyrazolo[3,4-b]pyrazin-6-yl)amino)ethyl)-4-methylphenyl)-5-methyl-6-(4-methylpiperazin-1-yl)nicotinamide] | < 300 nM | < 300 nM |
| Cc1cncc(C(=O)Nc2cccc([C@H](C)Nc3cnc4[nH]cc(-c5cncnc5)c4n3)c2)c1 [Compound 593, (S)-5-methyl-N-(3-(1-((7-(pyrimidin-5-yl)-5H-pyrrolo [2,3-b]pyrazin-2-yl)amino)ethyl)phenyl)nicotinamide] | < 300 nM | < 300 nM |
| CC(C)n1cc(C(=O)Nc2cccc([C@H](C)Nc3cnc4cnn(C)c4n3)c2)cn1 [Compound 147, (S)-1-isopropyl-N-(3-(1-((1-methyl-1H-pyrazolo[3,4-b]pyrazin-6-yl)amino)ethyl)phenyl)-1H-pyrazole-4-carboxamide] | < 300 nM | < 300 nM |
| Cc1cc2ncc(N[C@@H](C)c3cccc(NC(=O)c4ccc(OC(F)F)nc4)c3)nc2s1 [Compound 608, (S)-6-(difluoromethoxy)-N-(3-(1-((6-methylthieno[2,3-b]pyrazin-3-yl)amino)ethyl)phenyl)nicotinamide] | < 300 nM | < 300 nM |
| CCn1cc2ncc(N[C@@H](C)c3cccc(NC(=O)c4ccc(CN5CCN(C)CC5)c(C)c4)c3)nc2n1 [Compound 402, (S)-N-(3-(1-((2-ethyl-2H-pyrazolo[3,4-b]pyrazin-6-yl)amino)ethyl)phenyl)-3-methyl-4-((4-methylpiperazin-1-yl)methyl)benzamide] | < 300 nM | < 300 nM |
| Cc1cncc(C(=O)Nc2cccc([C@H](C)Nc3cnc4ccc(C(F)(F)F)cc4n3)c2)c1 [Compound 34, (S)-5-methyl-N-(3-(1-((7-(trifluoromethyl)quinoxalin-2-yl)amino)ethyl)phenyl) nicotinamide] | < 300 nM | 300 to 1000 nM |
| C[C@H](Nc1cnc2cn[nH]c2n1)c1cccc(NC(=O)c2cncc(CO)c2)c1 [Compound 92, (S)-N-(3-(1-((1H-pyrazolo[3,4-b]pyrazin-6-yl)amino)ethyl)phenyl)-5-(hydroxymethyl) nicotinamide] | < 300 nM | ≥ 1000 nM |
| CCn1cc2ncc(N[C@@H](C)c3cccc(NC(=O)c4cnc(C#N)c(C)c4)c3)nc2n1 [Compound 289, (S)-6-cyano-N-(3-(1-((2-ethyl-2H-pyrazolo[3,4-b]pyrazin-6-yl)amino)ethyl)phenyl)-5-methylnicotinamide] | < 300 nM | 300 to 1000 nM |
| C[C@H](Nc1cnc2cnn(C)c2n1)c1cccc(NC(=O)c2cncc(C(C)(C)F)c2)c1 [Compound 108, (S)-5-(2-fluoropropan-2-yl)-N-(3-(1-((1-methyl-1H-pyrazolo[3,4-b]pyrazin-6-yl)amino)ethyl)phenyl) nicotinamide] | < 300 nM | < 300 nM |
| C[C@H](Nc1cnc2cn[nH]c2n1)c1cccc(NC(=O)c2ccc(C(F)(F)F)nc2)c1 [Compound 99, (S)-N-(3-(1-((1H-pyrazolo[3,4 b]pyrazin-6-yl)amino)ethyl)phenyl)-6-(trifluoromethyl) nicotinamide] | < 300 nM | < 300 nM |
| C[C@H](Nc1cnc2cn[nH]c2n1)c1cccc(NC(=O)c2cncc(C3COC3)c2)c1 [Compound 97, (S)-N-(3-(1-((1H-pyrazolo[3,4-b]pyrazin-6-yl)amino)ethyl)phenyl)-5-(oxetan-3-yl) nicotinamide] | < 300 nM | < 300 nM |
| Cc1cc2ncc(N[C@@H](C)c3cc(NC(=O)c4ccc(C(F)(F)F)nc4)ccc3F)nc2s1 [Compound 615, (S)-N-(4-fluoro-3-(1-((6-methylthieno[2,3-b]pyrazin-3-yl)amino)ethyl)phenyl)-6-(trifluoromethyl)nicotinamide] | < 300 nM | < 300 nM |
